Measured values reported in US5192525A (Board of Regents, The University of Texas System, priority 1991, dated 1993).
Where two headings read alike, the source gives them in different places.

What was measured:
MCF7 cell line = assay: Inhibition of MCF7 human breast tumor cell growth (MTT, 72 h); type: cell-based; conditions: for relative potencies, MCF7 inhibition: TX=100; for RP (relative potency): IC50 ratio between tamoxifen and competitor, tamoxifen 100; for IC50: Homo sapiens
Experimental: The MCF7 cell line is a human tumor cell line. This cell line was cultured in MEM (Eagles) media in a 5% CO^2 atmosphere with 10% fetal calf serum that had been washed twice with dextran coated charcoal to reduce endogenous estrogen levels. The media was supplemented with 1 mM sodium pyruvate and 100 μm non-essential amino acids. The cell line was screened routinely for myoplasma contamination using the GenProbe kit (Fisher). Cells were trypsinized and plated at a density of 5,000 cells/well in 96 well microtiter plates and allowed to attach and recover for 24 hours.
The media was removed by aspiration and replaced with filter sterilized drug (concentration from 10^-4 M to 10^-5 M) in media. The cells were incubated for 72 hours and then stained using the mTT tetrazolium dye assay of Mosmann^36 except that after the media was removed, the blue formazan product was solubilized in 50 μl/well DMSO.

estrogen receptor = molecular target: T1, estrogen receptor (Sus scrofa, UniProt Q29040); assay: Estrogen receptor binding in pig uterus cytosol, displacement of [3H]estradiol; conditions: for RBA: relative binding affinity: Table 6, IC50 ratio between tamoxifen and competitor (tamoxifen given as 1); for fold estrogen receptor affinity versus native tamoxifen: relative to native tamoxifen; for IC50 / Ki: pig uteri cytosol, [3H]estradiol 5 nM, 4 °C
T1 construct: uteri (90 gm) were obtained from immature domestic swine (15 kg); from tissue; host or cells: uterus cytosol (100,000 g supernatant, charcoal-treated) of immature domestic swine
T1 sequence (Q29040 1-595): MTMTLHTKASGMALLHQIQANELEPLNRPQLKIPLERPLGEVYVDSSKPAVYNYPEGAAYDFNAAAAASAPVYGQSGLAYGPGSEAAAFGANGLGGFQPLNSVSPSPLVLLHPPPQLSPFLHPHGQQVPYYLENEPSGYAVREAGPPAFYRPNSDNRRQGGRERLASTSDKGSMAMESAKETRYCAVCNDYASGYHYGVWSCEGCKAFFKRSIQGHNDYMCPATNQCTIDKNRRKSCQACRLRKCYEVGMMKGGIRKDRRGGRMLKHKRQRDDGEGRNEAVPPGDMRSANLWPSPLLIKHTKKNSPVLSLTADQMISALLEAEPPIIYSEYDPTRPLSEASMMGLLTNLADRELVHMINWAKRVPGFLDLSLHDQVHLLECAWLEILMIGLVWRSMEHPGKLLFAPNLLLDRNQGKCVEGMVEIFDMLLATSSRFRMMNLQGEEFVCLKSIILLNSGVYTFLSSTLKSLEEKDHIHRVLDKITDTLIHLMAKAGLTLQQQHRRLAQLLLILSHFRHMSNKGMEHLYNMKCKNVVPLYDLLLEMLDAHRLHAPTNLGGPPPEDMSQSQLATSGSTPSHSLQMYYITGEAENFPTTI
Experimental: done at 4° C. […] The protein
three experiments. In each experiment, triplicate samples were tested.
^2 IC50 : Concentration required to decrease the amount of bound
^3 RBA: Relative binding affinity is the IC50 ratio between

[1] = Table 7, MCF7, 72 h, average of three experiments, read-out: IC50 Dose

IC50 (MCF7 cell line; [1]) [µM] | SMILES | relative potencies, MCF7 inhibition (MCF7 cell line) | RP (relative potency) (MCF7 cell line; Table 7) | RBA: relative binding affinity (estrogen receptor) | fold estrogen receptor affinity versus native tamoxifen (estrogen receptor) | MCF7 tumor cell inhibition, result in words (MCF7 cell line) | also measured
 | CCN(CC)CCOc1ccc(/C(=C(\CCCBr)c2ccccc2)c2ccccc2)cc1 [Compound XI (cis)] | 2355 | 2355 | 37.5 | 38 fold |  | 
4.5 | CN(C)CCOc1ccc(/C(=C(\CCF)c2ccccc2)c2ccccc2)cc1 [Compound VII (cis), Fluorotamoxifen] |  |  |  |  |  | 
 | CCN(CC)CCOc1ccc(/C(=C(\CCCO)c2ccccc2)c2ccccc2)cc1 [Compound III (cis), N,N-diethyl-hydroxymethyltamoxifen] | 66 | 66 |  |  |  | 
 | CCN(CC)CCOc1ccc(/C(=C(\CCCI)c2ccccc2)c2ccccc2)cc1 [X (cis), N,N-diethyl-iodomethyltamoxifen] |  |  | 10 | 10 fold | effective for inhibiting a breast tumor cell line | MCF7 tumor cell inhibition, result in words (MCF7 cell line; listed as cis N,N-diethyl-iodomethyl): more potent than the trans isomers
 | CCN(CC)CCOc1ccc(/C(=C(/CCCO)c2ccccc2)c2ccccc2)cc1 [III (trans), N,N-diethyl-hydroxymethyltamoxifen] | 50 | 50 | 4 |  |  | 
13.4 | CCN(CC)CCOc1ccc(/C(=C(/CCF)c2ccccc2)c2ccccc2)cc1 (single isomer, unassigned) [Compound IV (trans), N,N-diethyl-fluorotamoxifen] |  |  |  | two and a half times that of tamoxifen |  | RBA (estrogen receptor): 250; estrogen receptor binding, result in words (estrogen receptor): higher binding affinity than the cis isomer; IC50 (estrogen receptor; Table 5): 12 µM; Ki (estrogen receptor; Table 5): 6 µM
 | CCN(CC)CCOc1ccc(/C(=C(\CCCF)c2ccccc2)c2ccccc2)cc1 [Compound VI (cis), N,N-diethyl-fluoromethyltamoxifen] |  |  |  |  | effective for inhibiting a breast tumor cell line | MCF7 tumor cell inhibition, result in words (MCF7 cell line; listed as cis N,N-diethyl-fluoromethyl): more potent than the trans isomers
11.8 | CN(C)CCOc1ccc(/C(=C(/CCF)c2ccccc2)c2ccccc2)cc1 [VII (trans), Trans-Fluorotamoxifen] |  |  |  |  |  | 
 | CCN(CC)CCOc1ccc(/C(=C(/CCCBr)c2ccccc2)c2ccccc2)cc1 [Compound XI (trans)] | 298 | 298 | 150 | 50 fold |  | 
 | CCN(CC)CCOc1ccc(/C(=C(/CCCI)c2ccccc2)c2ccccc2)cc1 [X (trans)] |  |  |  | 15 fold | effective for inhibiting a breast tumor cell line | 
 | CCN(CC)CCOc1ccc(/C(=C(/CCCF)c2ccccc2)c2ccccc2)cc1 [Compound VI (trans)] |  |  |  |  | effective for inhibiting a breast tumor cell line | IC50 (MCF7 cell line; MCF7, read-out: IC50, MCF7 cell inhibition): 1.8 µM
4.36 | CCN(CC)CCOc1ccc(/C(=C(\CCCCl)c2ccccc2)c2ccccc2)cc1 [Compound XII (cis), 1[4-(2-Diethylaminoethoxy)phenyl]-1,2-diphenyl-5-chloro-1-pentene (N,N-Diethylchloromethyltamoxifen)] |  |  |  |  |  | 

SMILES | IC50 (MCF7 cell line; [1]) [µM] | relative potencies, MCF7 inhibition (MCF7 cell line) | RP (relative potency) (MCF7 cell line; Table 7) | RBA: relative binding affinity (estrogen receptor) | fold estrogen receptor affinity versus native tamoxifen (estrogen receptor) | MCF7 tumor cell inhibition, result in words (MCF7 cell line) | also measured
CCN(CC)CCOc1ccc(/C(=C(\CCF)c2ccccc2)c2ccccc2)cc1 (single isomer, unassigned) [IV (cis), N,N-diethyl-fluorotamoxifen] | 4.1 |  |  |  |  | effective for inhibiting a breast tumor cell line | MCF7 tumor cell inhibition, result in words (MCF7 cell line; listed as cis N,N-diethyl-fluoro): more potent than the trans isomers; IC50 (estrogen receptor; Table 5): 30 µM; Ki (estrogen receptor; Table 5): 15 µM; RBA (estrogen receptor; Table 5, tamoxifen is 100 as the standard): 100
